Activity calls are given as the source filed them. No cut-off for these calls is given here.
What was measured:
Prothrombin [1] = target: T1, Prothrombin (Homo sapiens, UniProt P00734); assay: Inhibition of Thrombin at 300 uM
Trypsin = Trypsin (Homo sapiens, UniProt P07477+P07478+P35030); assay: Inhibitory activity against trypsin; format: protein assay
Prothrombin [2] = target: T1, Prothrombin; assay: Inhibitory activity against Thrombin

## NCc1cccc(Cl)c1
Prothrombin [1]
  inhibition: inactive

## COc1cc(C)c(S(=O)(=O)NC[C@@H](O)[C@H](Cc2ccccc2)NCc2cccc(Cl)c2)c(C)c1C
Trypsin
  IC50: > 100000 nM

## COc1cc(C)c(S(=O)(=O)NC[C@@H](O)[C@H](Cc2ccccc2)NCc2cc(Cl)ccc2-n2cnnn2)c(C)c1C
Prothrombin [2]
  IC50: 1.4 nM

Source: ChEMBL document CHEMBL1149411, “Application of fragment screening and fragment linking to the discovery of novel thrombin inhibitors” (J Med Chem, 2006)
